From PubChem BioAssay AID2060341 (Molecular Pharmacology Branch, DTP, NCI, 2025)
pIC50: −log10 of the molar value. “And” between values parts separate entries of the source, which are not always exact repeats. Identical values can stand only once.

Test system: 327498-153-R-J2-PDC multicell spheroid viability
Assay: Anticancer human tumor 327498-153-R-J2-PDC patient-derived uterine carcinosarcoma cell line growth inhibition [IpAb]
Settings: for viability, T/C: stronger effect = lower value
Outline: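 Combinations with ipatasertib or abemaciclib were tested on tumour spheroids holding HUVEC (25%) and MSC (15%) alongside 60% malignant cells. Top concentration was at or near clinical Cmax (10 microM if undefined), descending in half-log steps.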

[1] = curve of first compound, second compound 0.1 µM
[2] = curve of first compound, second compound 0.316 µM
[3] = curve of first compound, second compound 1 µM
[4] = curve of first compound, second compound 3.16 µM
[5] = curve of first compound, second compound 10 µM
[6] = second compound 0.1 µM, first compound 0.0316 µM
[7] = second compound 0.1 µM, first compound 0.1 µM
[8] = second compound 0.1 µM, first compound 0.316 µM
[9] = second compound 0.1 µM, first compound 1 µM
[10] = second compound 0.1 µM, first compound 3.16 µM
[11] = second compound 0.1 µM, first compound 10 µM
[12] = second compound 0.316 µM, first compound 0.0316 µM
[13] = second compound 0.316 µM, first compound 0.1 µM
[14] = second compound 0.316 µM, first compound 0.316 µM
[15] = second compound 0.316 µM, first compound 1 µM
[16] = second compound 0.316 µM, first compound 3.16 µM
[17] = second compound 0.316 µM, first compound 10 µM
[18] = second compound 1 µM, first compound 0.0316 µM
[19] = second compound 1 µM, first compound 0.1 µM
[20] = second compound 1 µM, first compound 0.316 µM
[21] = second compound 1 µM, first compound 1 µM
[22] = second compound 1 µM, first compound 3.16 µM
[23] = second compound 1 µM, first compound 10 µM
[24] = second compound 3.16 µM, first compound 0.0316 µM
[25] = second compound 3.16 µM, first compound 0.1 µM
[26] = second compound 3.16 µM, first compound 0.316 µM
[27] = second compound 3.16 µM, first compound 1 µM
[28] = second compound 3.16 µM, first compound 3.16 µM
[29] = second compound 3.16 µM, first compound 10 µM
[30] = second compound 10 µM, first compound 0.0316 µM
[31] = second compound 10 µM, first compound 0.1 µM
[32] = second compound 10 µM, first compound 0.316 µM
[33] = second compound 10 µM, first compound 1 µM
[34] = second compound 10 µM, first compound 3.16 µM
[35] = second compound 10 µM, first compound 10 µM
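Note: spheroids exposed to agents for 7 days.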
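Throughout, for viability, T/C: 100% = DMSO vehicle control viability.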

| Compound | pIC50 [1] | pIC50 [2] | pIC50 [3] | pIC50 [4] | pIC50 [5] | viability, T/C [6] [%] | viability, T/C [7] [%] | viability, T/C [8] [%] | viability, T/C [9] [%] | viability, T/C [10] [%] | viability, T/C [11] [%] | viability, T/C [12] [%] | viability, T/C [13] [%] | viability, T/C [14] [%] | viability, T/C [15] [%] | viability, T/C [16] [%] | viability, T/C [17] [%] | viability, T/C [18] [%] | viability, T/C [19] [%] | viability, T/C [20] [%] | other results |
| --- | --- | --- | --- | --- | --- | --- | --- | --- | --- | --- | --- | --- | --- | --- | --- | --- | --- | --- | --- | --- | --- |
| COc1c(OCCCN2CCOCC2)ccc2c3n(c(=NC(=O)c4cnc(N)nc4)nc12)CCN3 |  |  |  |  |  |  |  |  |  |  |  |  |  |  |  |  |  |  |  |  | viability, T/C (compound 0.00316 µM): 98.8% and 95%; viability, T/C (compound 0.01 µM): 87.7% and 86%; viability, T/C (compound 0.0316 µM): 70.7% and 76.3%; viability, T/C (compound 0.1 µM): 46.7% and 45.2%; viability, T/C (compound 0.316 µM): 25.3% and 23.2%; viability, T/C (compound 1 µM): 9.52% and 11.8%; pIC50 (curve of compound): 7.06 |
| Cn1ncc(Cl)c1-c1cc(C(=O)NC(CN)Cc2cccc(F)c2)sc1Cl (configuration not stated) + CC(C)NCC(C(=O)N1CCN(c2ncnc3c2C(C)CC3O)CC1)c1ccc(Cl)cc1 | 5.88 | 5.79 | 5.90 | 6.04 | > 7.50 | 98.5 | 86.4 | 70 | 53.9 | 38.1 | 0.27 | 77.7 | 77.5 | 63.2 | 60.1 | 40 | 0.3 | 63.4 | 55.8 | 55.3 | viability, T/C [21]: 52.9%; viability, T/C [22]: 39.8%; viability, T/C [23]: 0.31%; viability, T/C [24]: 50.5%; viability, T/C [25]: 56.8%; viability, T/C [26]: 50%; viability, T/C [27]: 49.5%; viability, T/C [28]: 39.2%; viability, T/C [29]: 0.3%; viability, T/C [30]: 35.5%; viability, T/C [31]: 45.2%; viability, T/C [32]: 41.7%; viability, T/C [33]: 35.8%; viability, T/C [34]: 35.6%; viability, T/C [35]: 0.42% |
| Cc1nc(NC(=O)N2CCCC2C(N)=O)sc1-c1ccnc(C(C)(C)C(F)(F)F)c1 (configuration not stated) + CC(C)NCC(C(=O)N1CCN(c2ncnc3c2C(C)CC3O)CC1)c1ccc(Cl)cc1 | 5.00 | 5.35 | 5.91 | 7.30 | > 7.50 | 91.1 | 93.2 | 83.3 | 72.7 | 63.8 | 49.4 | 72 | 70.5 | 67.8 | 59.2 | 57.8 | 38.5 | 56.4 | 57.7 | 59.2 | viability, T/C [21]: 49.8%; viability, T/C [22]: 42.5%; viability, T/C [23]: 30.5%; viability, T/C [24]: 54.3%; viability, T/C [25]: 44.9%; viability, T/C [26]: 36.2%; viability, T/C [27]: 34.6%; viability, T/C [28]: 33.7%; viability, T/C [29]: 21.3%; viability, T/C [30]: 38.7%; viability, T/C [31]: 31.7%; viability, T/C [32]: 26.6%; viability, T/C [33]: 23.5%; viability, T/C [34]: 25.5%; viability, T/C [35]: 17.2% |
